Where “and” joins values, the source holds several entries; their conditions need not be identical. Equal entries are not always repeated. Where two headings read alike, the source gives them in different places.
Tests used:
HCT 116 cells = assay: Cell growth assay (CellTiter-Glo 2.0), HCT 116 MSI-H cell line; conditions: read-out: Cell Growth Inhibition GI50 HCT-116
[1] = target: hWRN(519-1227)_C-H3CV-GFP-10His (Homo sapiens, UniProt Q14191); assay: Helicase Assay for WRN Inhibition (ATP-dependent, fluorescence based)
hWRN(519-1227)_C-H3CV-GFP-10His, sequence (Q14191 519-1227): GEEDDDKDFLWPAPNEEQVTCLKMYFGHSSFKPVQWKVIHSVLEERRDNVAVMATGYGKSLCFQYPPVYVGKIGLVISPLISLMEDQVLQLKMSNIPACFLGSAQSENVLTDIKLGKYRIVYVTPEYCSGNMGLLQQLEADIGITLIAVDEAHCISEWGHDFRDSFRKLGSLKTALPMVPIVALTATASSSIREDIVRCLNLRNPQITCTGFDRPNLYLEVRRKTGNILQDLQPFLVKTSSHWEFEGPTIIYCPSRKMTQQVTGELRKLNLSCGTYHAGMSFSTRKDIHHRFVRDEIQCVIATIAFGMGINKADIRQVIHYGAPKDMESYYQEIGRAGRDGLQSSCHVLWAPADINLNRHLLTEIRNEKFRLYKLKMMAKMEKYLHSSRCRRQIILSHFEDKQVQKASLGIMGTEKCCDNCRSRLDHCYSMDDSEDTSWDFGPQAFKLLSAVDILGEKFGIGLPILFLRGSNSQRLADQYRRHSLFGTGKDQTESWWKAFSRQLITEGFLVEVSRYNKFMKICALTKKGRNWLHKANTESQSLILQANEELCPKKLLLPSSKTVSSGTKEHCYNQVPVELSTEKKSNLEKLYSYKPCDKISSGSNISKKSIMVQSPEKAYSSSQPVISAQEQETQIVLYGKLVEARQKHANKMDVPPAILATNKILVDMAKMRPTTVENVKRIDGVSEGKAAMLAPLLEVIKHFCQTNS

SW480 cells = assay: Cell growth assay (CellTiter-Glo 2.0), SW480 MSS cell line; conditions: read-out: Cell Growth Inhibition GI50 SW480
WRN C727 = target: T1, WRN C727 (Homo sapiens, UniProt Q14191); assay: Target engagement, in vitro (lysate), OCI-AML2; format: binding; conditions: read-out: OCI-AML2 WRN C727 TE50 in vitro (lysate)
T1 construct: endogenous in cells; host or cells: OCI-AML2
T1 sequence (Q14191 whole entry): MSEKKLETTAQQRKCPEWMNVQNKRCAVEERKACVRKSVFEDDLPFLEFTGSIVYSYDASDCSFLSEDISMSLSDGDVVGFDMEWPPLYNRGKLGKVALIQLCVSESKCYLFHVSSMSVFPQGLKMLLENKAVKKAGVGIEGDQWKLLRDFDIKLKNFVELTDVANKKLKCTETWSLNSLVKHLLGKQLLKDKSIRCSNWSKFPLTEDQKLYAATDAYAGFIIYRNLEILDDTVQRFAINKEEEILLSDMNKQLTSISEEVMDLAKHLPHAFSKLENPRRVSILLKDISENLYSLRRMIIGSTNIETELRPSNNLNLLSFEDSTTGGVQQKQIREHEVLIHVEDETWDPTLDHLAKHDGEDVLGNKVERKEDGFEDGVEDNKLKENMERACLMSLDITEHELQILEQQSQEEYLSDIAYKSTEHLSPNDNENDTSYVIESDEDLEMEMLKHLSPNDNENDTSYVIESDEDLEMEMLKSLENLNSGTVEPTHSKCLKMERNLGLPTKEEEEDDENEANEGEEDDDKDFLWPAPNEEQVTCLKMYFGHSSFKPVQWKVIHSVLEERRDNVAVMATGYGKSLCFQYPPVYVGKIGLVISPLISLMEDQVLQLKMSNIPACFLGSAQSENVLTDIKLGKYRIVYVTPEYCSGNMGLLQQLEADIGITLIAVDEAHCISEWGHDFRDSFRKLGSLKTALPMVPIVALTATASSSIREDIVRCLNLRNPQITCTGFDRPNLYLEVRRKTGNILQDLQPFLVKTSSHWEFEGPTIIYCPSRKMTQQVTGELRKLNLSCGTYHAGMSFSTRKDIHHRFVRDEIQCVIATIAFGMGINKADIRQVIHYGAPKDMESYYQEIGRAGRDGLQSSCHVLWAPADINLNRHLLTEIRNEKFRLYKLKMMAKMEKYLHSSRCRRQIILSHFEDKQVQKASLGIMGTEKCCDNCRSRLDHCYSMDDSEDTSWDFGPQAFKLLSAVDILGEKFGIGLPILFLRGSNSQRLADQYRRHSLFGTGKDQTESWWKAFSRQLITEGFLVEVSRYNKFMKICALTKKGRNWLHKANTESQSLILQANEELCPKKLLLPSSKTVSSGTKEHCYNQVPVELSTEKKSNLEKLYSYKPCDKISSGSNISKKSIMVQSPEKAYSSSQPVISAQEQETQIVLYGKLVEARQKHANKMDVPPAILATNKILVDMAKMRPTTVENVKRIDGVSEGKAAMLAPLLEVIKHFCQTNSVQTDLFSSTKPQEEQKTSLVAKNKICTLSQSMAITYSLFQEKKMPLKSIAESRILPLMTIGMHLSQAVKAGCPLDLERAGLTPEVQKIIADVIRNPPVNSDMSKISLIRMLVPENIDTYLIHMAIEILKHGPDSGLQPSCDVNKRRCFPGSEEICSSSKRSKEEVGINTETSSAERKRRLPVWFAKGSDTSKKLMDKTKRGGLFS
Method: Cells or cell lysates were treated with a dose response of compound followed by probe treatment, which labels solvent exposed cysteines. Proteins were enzymatically digested with trypsin and probe-labelled peptides were enriched with streptavidin. Isolated peptides were then separated using reversed-phase liquid chromatography on a C18 column (Dionex Ultimated 3000 nano-LC, Thermo). Peptides were analyzed by parallel reaction monitoring mass spectrometry (Exploris 120, Thermo).
Target engagement (%) is calculated relative to DMSO treated control samples.

[2] = HCT-116 (MSI-H), 5-day incubation
[3] = read-out: WRN Helicase IC50, 30 min preincubation with ATP, 30 min reaction
[4] = WRN Helicase IC50, 30 min preincubation with ATP, 30 min reaction

| Compound | GI50 (HCT 116 cells; Homo sapiens, HCT-116, 120 h) [µM] | GI50 (SW480 cells; Homo sapiens, SW480, 120 h) [µM] | IC50 [1, 4] [µM] | further results |
| --- | --- | --- | --- | --- |
| 2-cyclopropyl-4-(((1R,2R)-2-fluorocyclohexyl)oxy)-N—((S,E)-4-(methylsulfonyl)but-3-en-2-yl)pyrimidine-5-carboxamide; or 2-cyclopropyl-4-(((1S,2S)-2-fluorocyclohexyl)oxy)-N—((S,E)-4-(methylsulfonyl)but-3-en-2-yl)pyrimidine-5-carboxamide [Example 149] | – | – | – | GI50 (HCT 116 cells; [2]): 2.5 µM; IC50 [1, 3]: 7.8 µM; GI50 (SW480 cells; SW480 (MSS), 5-day incubation): > 10 µM |
| CS(=O)(=O)C=CC1CN(C(=O)c2cnc(C3CC3)nc2Oc2ccccc2)C1 (racemic) [Example 22, (2-cyclopropyl-4-phenoxypyrimidin-5-yl)(3-(2-(methylsulfonyl)vinyl)azetidin-1-yl)methanone] | 2.5 | 6.1 | – | IC50 [1]: 3.5 µM |
| CC1C(=CC#N)CN1C(=O)c1cnc(C2CC2)nc1Oc1ccccc1 (racemic) [Example 265, 2-(1-(2-cyclopropyl-4-phenoxypyrimidine-5-carbonyl)-2-methylazetidin-3-ylidene)acetonitrile] | 8.5 | > 10 | – | IC50 [1]: 7.2 µM |
| CC(F)(F)c1ncc(C(=O)NC(C=CS(C)(=O)=O)C2CC(F)(F)C2)c(Oc2ccccc2)n1 (single isomer, unassigned) [192/193] | 0.023 | 24 | – | – |
| C=C(C#N)[C@H](C)NC(=O)c1cnc(C(F)(F)C2CC2)nc1Oc1ccccc1 [275/276, (S)—N-(3-cyanobut-3-en-2-yl)-2-(cyclopropyldifluoromethyl)-4-phenoxypyrimidine-5-carboxamide/(R)—N-(3-cyanobut-3-en-2-yl)-2-(cyclopropyldifluoromethyl)-4-phenoxypyrimidine-5-carboxamide] | – | – | – | GI50 (SW480 cells; SW480 (MSS), 5-day incubation): 10 µM and 9.4 µM |
| C=C(C#N)[C@@H](NC(=O)c1cnc(C(C)(F)F)nc1Oc1ccccc1)C1CC1 [278/279, (S)—N-(2-cyano-1-cyclopropylallyl)-2-(1,1-difluoroethyl)-4-phenoxypyrimidine-5-carboxamide/(R)—N-(2-cyano-1-cyclopropylallyl)-2-(1,1-difluoroethyl)-4-phenoxypyrimidine-5-carboxamide] | – | – | – | GI50 (HCT 116 cells; [2]): 0.35 µM; GI50 (SW480 cells; SW480 (MSS), 5-day incubation): 11 µM |
| CS(=O)(=O)/C=C/CNC(=O)c1cnc(C2CCCC2)nc1Oc1ccccc1 [Example 1, (E)-2-cyclopentyl-N-(3-(methylsulfonyl)allyl)-4-phenoxypyrimidine-5-carboxamide] | 2.1 | – | – | – |
| CN(C)C(=O)C[C@@H](/C=C/S(C)(=O)=O)NC(=O)c1cnc(C(C)(C)C)nc1Oc1ccccc1 [Example 71, (S,E)-2-(tert-butyl)-N-(5-(dimethylamino)-1-(methylsulfonyl)-5-oxopent-1-en-3-yl)-4-phenoxypyrimidine-5-carboxamide] | 0.11 | 41.4 | 0.27 | – |
| C[C@@H](/C=C/S(C)(=O)=O)NC(=O)c1cnc(C(C)(F)F)nc1Oc1ccccc1 [Example 86, (S,E)-2-(1,1-difluoroethyl)-N-(4-(methylsulfonyl)but-3-en-2-yl)-4-phenoxypyrimidine-5-carboxamide] | 0.224 | 41.7 | – | – |
| CC(F)(F)c1ncc(C(=O)N[C@H](/C=C/S(C)(=O)=O)CC(F)F)c(Oc2ccccc2)n1 [Example 90, (S,E)-N-(5,5-difluoro-1-(methylsulfonyl)pent-1-en-3-yl)-2-(1,1-difluoroethyl)-4-phenoxypyrimidine-5-carboxamide] | 0.327 | 19.2 | 0.69 | – |
| CC(F)(F)c1ncc(C(=O)N[C@H](/C=C/S(C)(=O)=O)C2CCC(F)(F)CC2)c(Oc2ccccc2)n1 [Example 91, (S,E)-N-(1-(4,4-difluorocyclohexyl)-3-(methylsulfonyl)allyl)-2-(1,1-difluoroethyl)-4-phenoxypyrimidine-5-carboxamide] | 0.252 | 26.1 | 0.6 | – |
| CC(F)(F)c1ncc(C(=O)N[C@H](/C=C/S(C)(=O)=O)COC2CC2)c(Oc2ccccc2)n1 [Example 97, (R,E)-N-(1-cyclopropoxy-4-(methylsulfonyl)but-3-en-2-yl)-2-(1,1-difluoroethyl)-4-phenoxypyrimidine-5-carboxamide] | 0.07 | 40 | 0.22 | – |
| CS(=O)(=O)/C=C/CNC(=O)c1cnc(C2CCCC2)nc1Oc1cccc(F)c1 [Example 111, (E)-2-cyclopentyl-4-(3-fluorophenoxy)-N-(3-(methylsulfonyl)allyl)pyrimidine-5-carboxamide] | 4.2 | > 10 | 3.8 | – |
| CS(=O)(=O)/C=C/CNC(=O)c1cnc(C2CCCC2)nc1Oc1ccc(Cl)cc1 [Example 120, (E)-4-(4-chlorophenoxy)-2-cyclopentyl-N-(3-(methylsulfonyl)allyl)pyrimidine-5-carboxamide] | 4.3 | 4.8 | 4.9 | – |
| [2H]c1c([2H])c([2H])c(Oc2nc(C3CC3)ncc2C(=O)N[C@@H](C)/C=C/S(C)(=O)=O)c([2H])c1[2H] [Example 140] | 0.33 | 32 | 1.9 | – |
| C[C@@H](/C=C/S(C)(=O)=O)NC(=O)c1cnc(C2CC2)nc1OC12CCC(CC1)C2 [Example 143, (S,E)-4-(bicyclo[2.2.1]heptan-1-yloxy)-2-cyclopropyl-N-(4-(methylsulfonyl)but-3-en-2-yl)pyrimidine-5-carboxamide] | 3.4 | 13 | 14 | – |
| CC(F)(F)c1ncc(C(=O)N[C@H](/C=C/S(C)(=O)=O)C2CC2)c(O[C@@H]2C[C@@H]3C[C@@H]3C2)n1 [Example 158, 4-(((1R,3r,5S)-bicyclo[3.1.0]hexan-3-yl)oxy)-N—((S,E)-1-cyclopropyl-3-(methylsulfonyl)allyl)-2-(1,1-difluoroethyl)pyrimidine-5-carboxamide] | 0.36 | 40 | 1.5 | – |
| CC(C)(C)c1ncc(C(=O)NC/C=C/S(C)(=O)=O)c(O[C@H]2C[C@@H]3C[C@@H]3C2)n1 [Example 159, 4-(((1R,3s,5S)-bicyclo[3.1.0]hexan-3-yl)oxy)-2-(tert-butyl)-N—((E)-3-(methylsulfonyl)allyl)pyrimidine-5-carboxamide] | – | – | – | GI50 (HCT 116 cells; [2]): 2.5 µM; IC50 [1, 3]: 6.9 µM; GI50 (SW480 cells; SW480 (MSS), 5-day incubation): 12 µM |
| CN(C)c1ncc(C(=O)N[C@H](/C=C/S(C)(=O)=O)C2CC2)c(Oc2ccccc2)n1 [Example 177, (S,E)-N-(1-cyclopropyl-3-(methylsulfonyl)allyl)-2-(dimethylamino)-4-phenoxypyrimidine-5-carboxamide] | 0.086 | 12 | 0.37 | – |
| CNc1ncc(C(=O)N[C@H](/C=C/S(C)(=O)=O)C2CC2)c(Oc2ccccc2)n1 [Example 178, (S,E)-N-(1-cyclopropyl-3-(methylsulfonyl)allyl)-2-(methylamino)-4-phenoxypyrimidine-5-carboxamide] | 3.2 | 45 | 15 | – |
| CCN(CC)c1ncc(C(=O)N[C@H](/C=C/S(C)(=O)=O)C2CC2)c(Oc2ccccc2)n1 [Example 179, (S,E)-N-(1-cyclopropyl-3-(methylsulfonyl)allyl)-2-(diethylamino)-4-phenoxypyrimidine-5-carboxamide] | 0.198 | 7 | 1.04 | – |
| CN(c1ncc(C(=O)N[C@H](/C=C/S(C)(=O)=O)C2CC2)c(Oc2ccccc2)n1)C1CC1 [Example 180, (S,E)-2-(cyclopropyl(methyl)amino)-N-(1-cyclopropyl-3-(methylsulfonyl)allyl)-4-phenoxypyrimidine-5-carboxamide] | 0.0582 | 3.4 | 0.439 | – |
| [2H]c1c([2H])c([2H])c(Oc2nc(C(F)(F)C3CC3)ncc2C(=O)N[C@H](/C=C/S(C)(=O)=O)C2CC2)c([2H])c1[2H] [Example 229, (S,E)-N-(1-cyclopropyl-3-(methylsulfonyl)allyl)-2-(cyclopropyldifluoromethyl)-4-(phenoxy-d5)pyrimidine-5-carboxamide] | 0.013 | 13 | 0.058 | – |
| CS(=O)(=O)/C=C/[C@@H](NC(=O)c1ccc(C(F)(F)C2CC2)nc1Oc1ccccc1)C1CC1 [Example 234, (S,E)-N-(1-cyclopropyl-3-(methylsulfonyl)allyl)-6-(cyclopropyldifluoromethyl)-2-phenoxynicotinamide] | 0.011 | 6.1 | 0.056 | – |
| C=C(C#N)[C@H](C)NC(=O)c1cnc(C(C)(F)F)nc1Oc1ccccc1 [Example 273/274, (S)—N-(3-cyanobut-3-en-2-yl)-2-(1,1-difluoroethyl)-4-phenoxypyrimidine-5-carboxamide/(R)—N-(3-cyanobut-3-en-2-yl)-2-(1,1-difluoroethyl)-4-phenoxypyrimidine-5-carboxamide] | – | – | – | GI50 (HCT 116 cells; [2]): 0.122 µM; GI50 (SW480 cells; SW480 (MSS), 5-day incubation): 16 µM |
| CC(C)Oc1cc(C2CCCC2)ccc1C(=O)NC/C=C/S(C)(=O)=O [Example 281, (E)-4-cyclopentyl-2-isopropoxy-N-(3-(methylsulfonyl)allyl)benzamide] | – | – | 51 | IC50 (WRN C727): 41.8 µM |
